In brackets after ≈: the same amount, converted by molar mass.
How the values were obtained:
[1] = tested on: Mycobacterium tuberculosis; experiment: Antitubercular activity against multidrug-resistant Mycobacterium tuberculosis by two fold serial dilution method; assay type: functional
[2] = Safety index, ratio of IC50 for african green monkey Vero cells to MIC for multidrug-resistant Mycobacterium tuberculosis; assay type: toxicity, cell-based

COc1cc2c(cc1OC)C1=NN(C(=O)Nc3ccc([N+](=O)[O-])cc3)C(c3ccncc3)C1C2 (stereo not given)
MIC [1]: > 13.6 µM

COc1cc2c(cc1OC)C1=NN(C(=O)Nc3ccc(Cl)cc3)C(c3ccncc3)C1C2 (stereo not given)
MIC [1]: 10 µM (≈ 4.49 µg/mL)

COc1cc2c(cc1OC)C1=NN(C(=O)Nc3ccc(Cl)cc3)C(c3ccccc3Cl)C1C2 (stereo not given)
MIC [1]: > 13.9 µM

COc1cc2c(cc1OC)C1=NN(C(=O)Nc3ccc(Cl)cc3)C(c3ccc(F)cc3)C1C2 (stereo not given)
selectivity ratio [2]: 40.3 | MIC [1]: 3.32 µM (≈ 1.55 µg/mL)

COc1ccc(C2C3Cc4cc(OC)c(OC)cc4C3=NN2C(=O)Nc2ccc(Cl)cc2)cc1OC (stereo not given)
MIC [1]: > 9.8 µM

COc1cc2c(cc1OC)C1=NN(C(=O)Nc3ccc(Cl)cc3)C(c3ccccc3)C1C2 (stereo not given)
MIC [1]: 10.5 µM (≈ 4.69 µg/mL)

COc1ccc(C2C3Cc4cc(OC)c(OC)cc4C3=NN2C(=O)Nc2ccc(Cl)cc2)cc1 (stereo not given)
MIC [1]: > 10.5 µM

COc1cc2c(cc1OC)C1=NN(C(=O)Nc3ccc([N+](=O)[O-])cc3)C(c3ccccc3Cl)C1C2 (stereo not given)
MIC [1]: > 12.7 µM

COc1cc2c(cc1OC)C1=NN(C(=O)Nc3ccc([N+](=O)[O-])cc3)C(c3ccc(F)cc3)C1C2 (stereo not given)
MIC [1]: 6.32 µM (≈ 3.01 µg/mL)

COc1ccc(C2C3Cc4cc(OC)c(OC)cc4C3=NN2C(=O)Nc2ccc([N+](=O)[O-])cc2)cc1OC (stereo not given)
MIC [1]: > 12.1 µM

COc1cc2c(cc1OC)C1=NN(C(=O)Nc3ccc([N+](=O)[O-])cc3)C(c3ccccc3)C1C2 (stereo not given)
MIC [1]: 13.6 µM (≈ 6.24 µg/mL)

COc1ccc(C2C3Cc4cc(OC)c(OC)cc4C3=NN2C(=O)Nc2ccc([N+](=O)[O-])cc2)cc1 (stereo not given)
MIC [1]: > 12.8 µM

COc1cc2c(cc1OC)C1=NN(C(N)=O)C(c3ccncc3)C1C2 (stereo not given)
MIC [1]: > 11.8 µM

COc1cc2c(cc1OC)C1=NN(C(N)=O)C(c3ccccc3Cl)C1C2 (stereo not given)
MIC [1]: > 10.8 µM

COc1cc2c(cc1OC)C1=NN(C(N)=O)C(c3ccc(F)cc3)C1C2 (stereo not given)
MIC [1]: 6.62 µM (≈ 2.35 µg/mL)

COc1ccc(C2C3Cc4cc(OC)c(OC)cc4C3=NN2C(N)=O)cc1OC (stereo not given)
MIC [1]: > 10.1 µM

COc1cc2c(cc1OC)C1=NN(C(N)=O)C(c3ccccc3)C1C2 (stereo not given)
MIC [1]: > 11.8 µM

COc1ccc(C2C3Cc4cc(OC)c(OC)cc4C3=NN2C(N)=O)cc1 (stereo not given)
MIC [1]: > 10.9 µM

NNC(=O)c1ccncc1 [ISONIAZID]
MIC [1]: 45.6 µM (≈ 6.25 µg/mL)
